# Experimental data: patent US20060165987A1, “Stealthy polymeric biodegradable nanospheres and uses thereof” (priority 2002, published 2006)
# How the values were obtained:
# [1] = In vitro Rhodamine release (dialysis bag, phosphate buffer); format: physicochemical; details: 37° C.
# Procedure: The in vitro Rhodamine release profiles from the (-PLA-PEG-PLA-)n multiblock NS were determined as follows: NS were precisely weighed and suspended in 10 ml of phosphate buffer solution. The NS suspension was introduced into a dialysis membrane bag (Spectra/por™, Molecular weight cut off: 2000-4000, Spectrum Medical Industries, Inc., CA, USA) that was placed in 150 ml of phosphate buffer. This solution was stirred at 37° C. At pre-determined time intervals, 3 ml aliquots of the release medium were withdrawn from the release medium. The release of Rhodamine was monitored using a spectrofluorometer at an excitation wavelength of […] and emission wavelength of 554 nm. The sample was replaced in the release medium. The samples were analyzed by fluorescence since sensitivity will be needed for the incoming blood samples analysis.
# [2] = Organ distribution by fluorescence microscopy; format: in vivo; details: rats, after IV injection of nanospheres containing rhodamine, image analysis
# Procedure: 0.5 ml was taken at each time step. Plasma levels of rhodamine were measured by fluorescence detection. […] Organs were examined by fluorescence microscopy.
# [3] = lifetime of free rhodamine; cited from earlier work
compound,measurement,setting,value
"CCN(CC)c1ccc2c(-c3ccccc3C(=O)O)c3ccc(=[N+](CC)CC)cc-3oc2c1 [Rhodamine, Rhodamine B]",time of release,[1],≤ 30 min
same,Rhodamine accumulation in the organs,[2],No Rhodamine accumulation
same,t1/2 in the body,[3],3 h
